Results reported in paper PMC10848157, “Assessing NH300094, a novel dopamine and serotonin receptor modulator with cognitive enhancement property for treating schizophrenia” (Frontiers in Pharmacology, 2024).

Test: Spontaneous locomotor activity test in mice
Conditions: mouse, in vivo; single oral dose, male ICR mice; read-out: ED50, inhibition of spontaneous locomotor activity

With `O=C1CCc2cc(OCCCN3CCC(c4noc5cc(F)ccc45)CC3)cc3c2N1CC3` [NH300094, 8-(3-(4-(6-fluorobenzo [d]isoxazol-3-yl)piperidin-1-yl)propoxy)-1,2,5,6-tetrahydro-4H-pyrrolo [3,2,1-ij] quinolin-4-one] the ED50 at 60 min was ~0.49 mg/kg.
